Assay results taken from ChEMBL document CHEMBL3045448, “Enantioselective effects of optically active alpha-methylbenzyl-s-triazine on the root growth of rice and Echinochloa plants and their herbicidal activity” (Biosci Biotechnol Biochem, 2002).
Active and inactive are the calls of the source. The calls are words filed in the database; no cut-off is given here.

Tests used:
Echinochloa oryzicola [1] = assay: Herbicidal activity against sprouting stage of Echinochloa oryzicola seedlings assessed as growth inhibition after 3 weeks by paddy pot test under green house conditions; type: functional, organism-based
Echinochloa oryzicola [2] = assay: Herbicidal activity against Echinochloa oryzicola seedlings assessed as appearance of leaf burn symptom after 3 weeks by paddy pot test under green house conditions; type: functional, organism-based
[3] = tested on: Echinochloa crus-galli var. formosensis; assay: Phytotoxicity in germinated seedlings of Echinochloa crus-galli var. formosensis (barnyard millet) assessed as root growth inhibition at 30 uM after 3 to 4 days; type: organism-based; conditions: in vivo
Oryza sativa = assay: Phytotoxicity in germinated seedlings of Oryza sativa (rice) assessed as root growth inhibition at 30 uM after 3 to 4 days; type: organism-based; conditions: in vivo
Echinochloa oryzicola [4] = assay: Herbicidal activity against Echinochloa oryzicola seedlings measured per 10 acres after 3 weeks by paddy pot test under green house conditions; type: functional

SMILES: CCNc1nc(Cl)nc(N[C@H](C)c2ccccc2)n1
- growth inhibition (GI) (Echinochloa oryzicola [1]): Active
- Activity (Echinochloa oryzicola [2]): Active

SMILES: CCNc1nc(Cl)nc(NC(C)c2ccccc2)n1 (configuration not stated)
- growth inhibition (GI) (Echinochloa oryzicola [1]): Active
- Activity (Echinochloa oryzicola [2]): Active

SMILES: CCCN(CC)c1nc(Cl)nc(N[C@H](C)c2ccccc2)n1
- growth inhibition (GI) [3]: Toxic

SMILES: CC[C@H](C)Nc1nc(Cl)nc(N[C@H](C)c2ccccc2)n1
- growth inhibition (GI) (Oryza sativa): Toxic

SMILES: CCN(CC)c1nc(Cl)nc(NC(C)c2ccccc2)n1 (configuration not stated)
- growth inhibition (GI) (Echinochloa oryzicola [1]): Active

SMILES: CCNc1nc(Cl)nc(N[C@@H](C)c2ccccc2)n1
- Activity (Echinochloa oryzicola [2]): Active
- growth inhibition (GI) (Oryza sativa): Toxic

SMILES: C[C@@H](Nc1nc(Cl)nc(NC(C)(C)C)n1)c1ccccc1
- growth inhibition (GI) [3]: Toxic

SMILES: CCCN(C)c1nc(Cl)nc(N[C@H](C)c2ccccc2)n1
- growth inhibition (GI) (Oryza sativa): Toxic

SMILES: CCNc1nc(Cl)nc(NC(C)C)n1
- Activity (Echinochloa oryzicola [2]): Active

SMILES: CCCCNc1nc(Cl)nc(N[C@H](C)c2ccccc2)n1
- growth inhibition (GI) (Oryza sativa): Toxic

SMILES: CNc1nc(Cl)nc(N[C@@H](C)c2ccccc2)n1
- growth inhibition (GI) (Oryza sativa): Toxic

SMILES: CCN(CC)c1nc(Cl)nc(N[C@@H](C)c2ccccc2)n1
- growth inhibition (GI) (Echinochloa oryzicola [1]): Active

SMILES: CCC(CC)Nc1nc(Cl)nc(N[C@H](C)c2ccccc2)n1
- growth inhibition (GI) [3]: Toxic
- growth inhibition (GI) (Oryza sativa): Toxic

SMILES: CCCN(CCC)c1nc(Cl)nc(N[C@H](C)c2ccccc2)n1
- growth inhibition (GI) [3]: Toxic
- growth inhibition (GI) (Oryza sativa): Toxic

SMILES: CCN(CC)c1nc(Cl)nc(N[C@H](C)c2ccccc2)n1
- growth inhibition (GI) (Echinochloa oryzicola [1]): Active
- Activity (Echinochloa oryzicola [4]): 250 g

SMILES: CCCNc1nc(Cl)nc(N[C@H](C)c2ccccc2)n1
- growth inhibition (GI) (Oryza sativa): Toxic
